These results are taken from PMC5745756, “N,N-disubstituted azines attenuate LPS-mediated neuroinflammation in microglia and neuronal apoptosis via inhibiting MAPK signaling pathways” (BMC Neuroscience, 2017).

Type in all cases: cell-based, murine
Test [1] concerns p38. The experiment in a line: Western blot of LPS-induced p38 phosphorylation in BV-2 cells. To be noted: 5–20 µM; LPS 30 min, similar pattern at 24 h. How it is done:
BV-2 cells were seeded in a 6-well plate at a density of 6 × 10^5 cells/well and exposed to LPS (100 ng/mL) in the presence or absence of compound 3 for required time. After treatment, cells were collected and lysed in cell lysis buffer (50 mM Tris–HCl, pH 8.0, 0.1% SDS, 150 mM NaCl, 1% NP-40, 0.02% sodium azide, 0.5% sodium deoxycholate, 100 µg/mL PMSF, and […]) for 24 h at 4 °C. The protein content was measured using a Bradford assay. Equal amounts of protein (30 µg) were separated using SDS-PAGE and transferred to a nitrocellulose membrane. The membrane was blocked for 1 h with 5% skim milk in tris-buffered saline with Tween-20 (TBST) and then incubated for 12 h with primary antibodies against α-tubulin (Sigma-Aldrich Cat. no: T5168), iNOS (Bioscience Cat. no: 610333, COX-2 (Santa Cruz Cat. no: sc-1745), ERK (Cell Signaling Cat. no: 9107s), pERK (Cell Signaling Cat. no: 5013s), JNK (Cell Signaling Cat. no: 9252s), pJNK (Cell Signaling Cat. no: 4671s), p38 (Cell Signaling Cat. no: 8690s), and pP38 (Cell Signaling Cat. no: 9211s), followed by incubation for 1 h with horseradish peroxidase-conjugated secondary antibodies (Cell Signaling) at 15 °C. […]
Fig. 3 Effect of compound 3 on MAPK pathway in LPS-induced BV-2 cells. […] The phosphorylation of p38, JNK, and ERK was measured by western blotting (a–c). […]
A general note: In western blotting, separated proteins are transferred to a membrane and probed.

For test [2], the system named is BV2 cells. The experiment in a line: β-amyloid induced BV2 cell cytotoxicity. The text has this: Here, we have investigated whether the compound 3 has any direct protective effects on microglia and neurons against LPS and TNF-α induced direct toxicity. As the aim of this study is to check the effectiveness of compound 3 against neurodegenerative conditions, here we checked the effect of this compound to protect microglial cells against β-amyloid induced cytotoxicity as shown in Fig. 5a. […] LPS treatment was unable to induce cellular toxicity to N2a cells (Fig. 5b). […] Compound 3 mediated neuroprotection in N2a cells is due to the inhibition of proinflammatory cytokines produced by LPS activated microglia.
Fig. 5 Cytoprotection of compound 3 in β-amyloid induced BV2 cell and LPS and TNF-α induced N2a cell toxicity

For test [3], the system named is COX-2. Nature of the test: Western blot of LPS-induced COX-2 expression in BV-2 cells. The procedure: BV-2 cells were seeded in a 6-well plate at a density of 6 × 10^5 cells/well and exposed to LPS (100 ng/mL) in the presence or absence of compound 3 for required time. After treatment, cells were collected and lysed in cell lysis buffer (50 mM Tris–HCl, pH 8.0, 0.1% SDS, 150 mM NaCl, 1% NP-40, 0.02% sodium azide, 0.5% sodium deoxycholate, 100 µg/mL PMSF, and […]) for 24 h at 4 °C. The protein content was measured using a Bradford assay. Equal amounts of protein (30 µg) were separated using SDS-PAGE and transferred to a nitrocellulose membrane. […]
Fig. 2 Effect of compound 3 on LPS-induced iNOS and COX2 expression in BV-2 cells. […] Similarly, LPS activation was made for 24 h as chronic BV2 activation and the iNOS and COX-2 expression was measured (d). α-Tubulin was used as the loading control. […] After 24 h, the culture medium was subsequently collected to measure the quantity of PGE2 (e), IL-6 (f), and TNF-α (g) using ELISA analysis. […]

Turning to `COc1cc(/C=C/C=N/N=C/C=C/c2ccc(O)c(OC)c2)ccc1O` [Compound 3, 4,4′-(1E,1′E,3E,3′E)-3,3′-(hydrazine-1,2-diylidene)bis(prop-1-ene-1-yl-3-ylidene)bis(2-methoxyphenol)], in test [1], the “LPS-induced phosphorylation of p38” value was “significantly inhibited”. The “Microglial cell death against β-amyloid” value in test [2] is given as “significantly prevented”. In test [3] (5, 10 and 20 µM, 30 min pretreatment, LPS 100 ng/mL 6 h), the “Expression of COX-2” value was “significantly reduced”. Further, in test [3] (24 h chronic LPS activation), the “LPS induced COX-2 activation, chronic” value was “dramatically rescued”.
